Assay [1] relates to PC3 cells. The experiment in a line: PC3 cell proliferation, 2D activity assay (Cell Titer-Lumi, 72 h). The conditions noted are these: Homo sapiens, PC-3, read-out: 2D inhibitory activity against PC3 cells IC50. It is filed as cell-based, human.
In the next assay the target is FAK recombinant protein (Homo sapiens (Human), UniProt Q05397). The assay is described as follows: Inhibitory activity against FAK enzyme (HTRF, TK substrate). It is filed as biochemical. The protocol: A compound serially diluted with DMSO was mixed with a FAK recombinant protein. After the mixture was left to stand at room temperature for 10 min, a biotin-labeled TK substrate (TK) and ATP were added. […] The inhibition percentage and IC50 of the compound were calculated compared to the DMSO control group.
On the technique in general: TR-FRET usually uses a lanthanide donor and a delayed reading to cut background.

Assay [2] has as its system PC3 cells. The assay is described as follows: PC3 cell proliferation, 3D activity assay (3D culture, 14 days). It is filed as cell-based, human. The conditions noted are these: Homo sapiens, PC-3, 336 h, read-out: 3D inhibitory activity against PC3 cells IC50.

SMILES strings stand for the structures.

Chain of FAK recombinant protein (Q05397 whole entry): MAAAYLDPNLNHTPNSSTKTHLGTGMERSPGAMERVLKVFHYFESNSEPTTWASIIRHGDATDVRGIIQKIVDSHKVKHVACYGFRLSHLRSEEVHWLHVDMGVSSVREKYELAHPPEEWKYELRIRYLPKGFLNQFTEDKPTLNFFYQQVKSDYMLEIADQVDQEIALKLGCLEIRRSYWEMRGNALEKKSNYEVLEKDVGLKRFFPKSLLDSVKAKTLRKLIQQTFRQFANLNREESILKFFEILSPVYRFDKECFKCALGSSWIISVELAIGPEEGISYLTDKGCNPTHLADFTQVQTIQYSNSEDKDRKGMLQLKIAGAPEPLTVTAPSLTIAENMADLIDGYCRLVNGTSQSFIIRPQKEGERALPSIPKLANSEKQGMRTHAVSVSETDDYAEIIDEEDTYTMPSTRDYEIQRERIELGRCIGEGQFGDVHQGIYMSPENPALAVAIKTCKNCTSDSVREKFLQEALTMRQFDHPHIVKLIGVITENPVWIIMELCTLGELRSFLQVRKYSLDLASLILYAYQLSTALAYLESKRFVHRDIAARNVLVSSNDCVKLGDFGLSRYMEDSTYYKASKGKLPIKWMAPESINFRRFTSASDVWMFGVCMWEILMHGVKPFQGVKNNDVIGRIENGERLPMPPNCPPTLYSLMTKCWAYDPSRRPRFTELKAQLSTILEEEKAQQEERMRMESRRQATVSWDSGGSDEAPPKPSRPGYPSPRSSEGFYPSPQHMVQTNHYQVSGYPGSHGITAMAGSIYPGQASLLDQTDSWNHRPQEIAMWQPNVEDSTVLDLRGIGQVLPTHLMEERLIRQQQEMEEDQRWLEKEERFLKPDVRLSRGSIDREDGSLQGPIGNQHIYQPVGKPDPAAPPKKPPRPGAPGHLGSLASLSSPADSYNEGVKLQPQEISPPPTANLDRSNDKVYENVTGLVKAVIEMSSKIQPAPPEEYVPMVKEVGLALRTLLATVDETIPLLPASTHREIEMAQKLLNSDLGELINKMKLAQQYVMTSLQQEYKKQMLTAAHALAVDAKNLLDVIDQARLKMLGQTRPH

Take `COc1cc(C(=O)NC2CCC3(CCN(C)C3)C2)ccc1Nc1ncc(C(F)(F)F)c(Cc2cccc3c2C(=O)N(C)C32CC2)n1` (stereo not drawn) [Compound 104]: the 50% inhibitory concentration (IC50) is over 2000 nM with PC3 cells [1], under 20 nM at FAK recombinant protein and 5 to 50 nM in the assay with PC3 cells [2].
Take `COc1cc2c(cc1Nc1ncc(C(F)(F)F)c(Oc3cccc4c3C(=O)N(C)C43CC3)n1)CN(C)CC2` [Compound 86]: the figures for the IC50 with PC3 cells [1], at FAK recombinant protein and in the assay with PC3 cells [2] were over 2000 nM, under 20 nM and 5 to 50 nM, respectively.
In the same order, the values of `COc1cc(CN2CCN(C)CC2)ccc1Nc1ncc(Cl)c(Oc2cccc3c2C(=O)N(C)C32CC2)n1` [Compound 153, 4′-((5-chloro-2-((2-methoxy-4-((4-methylpiperazin-1-yl)methyl)phenyl)amino)pyrimidin-4-yl)oxy)-2′-methylspiro[cyclopropane-1,1′-isoindolin]-3′-one] are over 2000 nM, under 20 nM and under 5 nM.
In the same order, the values of `COc1cc(C(=O)N2CC3(CCN(C)CC3)C2)ccc1Nc1ncc(C(F)(F)F)c(Oc2cccc3c2C(=O)N(C)C32CC2)n1` [Compound 55] are over 2000 nM, under 20 nM and 5 to 50 nM.
Regarding `COc1cc(N2CCN(C)CC2)c(F)cc1Nc1ncc(Br)c(Oc2cccc3c2C(=O)N(C)C32CC2)n1` [Compound 183], the IC50 in the assay with PC3 cells [1] was over 2000 nM; on FAK recombinant protein, under 20 nM; with PC3 cells [2], 5 to 50 nM.
In the same order, the values of `COCCN1CCN(c2cc(OC)c(Nc3ncc(Br)c(Oc4cccc5c4C(=O)N(C)C54CC4)n3)cc2F)CC1` [Compound 186] are over 2000 nM, under 20 nM and under 5 nM.
In the same order, the values of `COc1cc(N2CC3(CCC2=O)CCN(C)CC3)ccc1Nc1ncc(C(F)(F)F)c(Oc2cccc3c2C(=O)N(C)C32CC2)n1` [Compound 66] are over 2000 nM, under 20 nM and over 50 nM.
In the same order, the values of `COc1cc(C(=O)NC2CCN(C)CC2)c(F)cc1Nc1ncc(Cl)c(Oc2cccc3c2C(=O)N(C)C32COC2)n1` [Compound 218] are over 2000 nM, under 20 nM and over 50 nM.
Turning to `COc1cc(N2CCC3(CC2)CN(C)C3)ccc1Nc1ncc(Br)c(Oc2cccc3c2C(=O)N(C)C32CC2)n1` [Compound 190], the IC50 in the assay on PC3 cells [1] was over 2000 nM; at FAK recombinant protein it was under 20 nM; with PC3 cells [2], under 5 nM.
In the same order, the values of `COc1cc(N2CCC3(CCN(C)CC3)CC2)ccc1Nc1ncc(Br)c(Oc2cccc3c2C(=O)N(C)C32CC2)n1` [Compound 189] are over 2000 nM, under 20 nM and under 5 nM.
In the same order, the values of `COc1cc(C(=O)NC2CCC3(CCN(C)CC3)C2)ccc1Nc1ncc(C(F)(F)F)c(Oc2cccc3c2C(=O)N(C)C32CC2)n1` (stereo not drawn) [Compound 19] are over 2000 nM, under 20 nM and 5 to 50 nM.
In the same order, the values of `COc1cc(N2CC3(CN(C)C3)C2)ccc1Nc1ncc(Cl)c(Oc2cccc3c2C(=O)N(C)C32CC2)n1` [Compound 146] are over 2000 nM, under 20 nM and 5 to 50 nM.
For `CCN1CCC(NC(=O)c2cc(OC)c(Nc3ncc(C(F)(F)F)c(Oc4cccc5c4C(=O)N(C)C54CC4)n3)cc2F)CC1` [Compound 41], the IC50 with PC3 cells [1] was over 2000 nM; on FAK recombinant protein, under 20 nM; with PC3 cells [2] it was under 5 nM.
Regarding `COc1cc(C(=O)NC2CCN(C)CC2)c(F)cc1Nc1ncc(Br)c(Oc2cccc3c2C(=O)N(C)C32CC2)n1` [Compound 174, 4-((5-bromo-4-((2′-methyl-3′-oxospiro[cyclopropane-1,1′-isoindolin]-4′-yl)oxy)pyrimidin-2-yl)amino)-2-fluoro-5-methoxy-N-(1-methylpiperidin-4-yl)benzamide], the IC50 in the assay on PC3 cells [1] is over 2000 nM; on FAK recombinant protein, under 20 nM; in the assay on PC3 cells [2] it was under 5 nM.
In the same order, the values of `COc1cc(N2CCC3(CCN(C)C3)C2)ccc1Nc1ncc(Cl)c(Oc2cccc3c2C(=O)N(C)C32CC2)n1` (stereo not drawn) [Compound 151] are over 2000 nM, under 20 nM and under 5 nM.
`COc1cc(C(=O)NC2CCN3CCN(C)C3C2)ccc1Nc1ncc(C(F)(F)F)c(Cc2cccc3c2C(=O)N(C)C32CC2)n1` (stereo not drawn) [Compound 110]: the IC50 with PC3 cells [1] is over 2000 nM; at FAK recombinant protein, under 20 nM; in the assay with PC3 cells [2], over 50 nM.
In the same order, the values of `COc1cc(N2CCC(N(C)C)CC2)c(F)cc1Nc1ncc(C(F)(F)F)c(Oc2cccc3c2C(=O)N(C)C32CC2)n1` [Compound 128] are over 2000 nM, under 20 nM and under 5 nM.
In the same order, the values of `COc1cc(C(=O)NC2CCN(C)CC2)c(F)cc1Nc1ncc(Cl)c(Oc2cccc3c2C(=O)N(C)C32CCCCC2)n1` [Compound 212] are over 2000 nM, under 20 nM and over 50 nM.
In the same order, the values of `COc1cc(N2CCN(CC(=O)N(C)C)CC2)c(F)cc1Nc1ncc(C(F)(F)F)c(Oc2cccc3c2C(=O)N(C)C32CC2)n1` [Compound 124] are over 2000 nM, under 20 nM and under 5 nM.
`COCCN1CCN(c2ccc(Nc3ncc(C(F)(F)F)c(Oc4cccc5c4C(=O)N(C)C54CC4)n3)c(OC)c2)CC1` [Compound 76, 4′-((2-((2-methoxy-4-(4-(2-methoxyethyl)piperazin-1-yl)phenyl)amino)-5-(trifluoromethyl)pyrimidin-4-yl)oxy)-2′-methylspiro[cyclopropane-1,1′-isoindolin]-3′-one]: the results for the concentration for half-maximal inhibition (IC50) with PC3 cells [1], on FAK recombinant protein and in the assay on PC3 cells [2] were over 2000 nM, under 20 nM and under 5 nM, respectively.
In the same order, the values of `COc1cc(CN(C)C)ccc1Nc1ncc(C(F)(F)F)c(Oc2cccc3c2C(=O)N(C)C32CC2)n1` [Compound 80] are over 2000 nM, under 20 nM and 5 to 50 nM.
In the same order, the values of `COc1cc(C(=O)NC2COC3(CCN(C)C3)C2)c(F)cc1Nc1ncc(C(F)(F)F)c(Oc2cccc3c2C(=O)N(C)C32CC2)n1` (stereo not drawn) [Compound 26] are over 2000 nM, under 20 nM and under 5 nM.
`COc1cc(C(=O)NC2CC3(CCN(C)CC3)C2)ccc1Nc1ncc(C(F)(F)F)c(Oc2cccc3c2C(=O)N(C)C32CC2)n1` [Compound 9]: the IC50 was over 2000 nM in the assay on PC3 cells [1], under 20 nM at FAK recombinant protein and under 5 nM with PC3 cells [2].
In the same order, the values of `COc1cc(N2CC(N(C)C)C2)ccc1Nc1ncc(Cl)c(Oc2cccc3c2C(=O)N(C)C32CC2)n1` [Compound 159] are over 2000 nM, under 20 nM and 5 to 50 nM.
In the same order, the values of `COc1cc(N2CCC3(CCN(C)C3)C2)c(F)cc1Nc1ncc(Cl)c(Oc2cccc3c2C(=O)N(C)C32CC2)n1` (stereo not drawn) [Compound 150] are over 2000 nM, under 20 nM and under 5 nM.
In the same order, the values of `COc1cc(C2CCN(C)CC2)ccc1Nc1ncc(Cl)c(Oc2cccc3c2C(=O)N(C)C32CC2)n1` [Compound 135, 4′-((5-chloro-2-((2-methoxy-4-(1-methylpiperidin-4-yl)phenyl)amino)pyrimidin-4-yl)oxy)-2′-methylspiro[cyclopropane-1,1′-isoindolin]-3′-one] are over 2000 nM, under 20 nM and under 5 nM.

As usually defined, the IC50 is the midpoint of a concentration-inhibition curve.

Source of the values: patent US20250154134A1, “COMPOUND AS FAK INHIBITOR AND USE THEREOF” (WIGEN BIOMEDICINE TECHNOLOGY (SHANGHAI) CO., LTD., priority 2022, published 2025).
